The source of these data is ChEMBL document CHEMBL1143793, “Solid-phase synthesis of Stat3 inhibitors incorporating O-carbamoylserine and O-carbamoylthreonine as glutamine mimics” (Bioorg Med Chem Lett, 2007).

The assay has as its target Signal transducer and activator of transcription 3 (Homo sapiens, UniProt P40763). Kind of assay: Inhibition of Stat3.

For orientation: pIC50 means −log10 of the IC50, conventionally taken in molar units.

Structures are written as SMILES. pIC50: −log10 of the molar value.

Sequence of Signal transducer and activator of transcription 3 (P40763 whole entry): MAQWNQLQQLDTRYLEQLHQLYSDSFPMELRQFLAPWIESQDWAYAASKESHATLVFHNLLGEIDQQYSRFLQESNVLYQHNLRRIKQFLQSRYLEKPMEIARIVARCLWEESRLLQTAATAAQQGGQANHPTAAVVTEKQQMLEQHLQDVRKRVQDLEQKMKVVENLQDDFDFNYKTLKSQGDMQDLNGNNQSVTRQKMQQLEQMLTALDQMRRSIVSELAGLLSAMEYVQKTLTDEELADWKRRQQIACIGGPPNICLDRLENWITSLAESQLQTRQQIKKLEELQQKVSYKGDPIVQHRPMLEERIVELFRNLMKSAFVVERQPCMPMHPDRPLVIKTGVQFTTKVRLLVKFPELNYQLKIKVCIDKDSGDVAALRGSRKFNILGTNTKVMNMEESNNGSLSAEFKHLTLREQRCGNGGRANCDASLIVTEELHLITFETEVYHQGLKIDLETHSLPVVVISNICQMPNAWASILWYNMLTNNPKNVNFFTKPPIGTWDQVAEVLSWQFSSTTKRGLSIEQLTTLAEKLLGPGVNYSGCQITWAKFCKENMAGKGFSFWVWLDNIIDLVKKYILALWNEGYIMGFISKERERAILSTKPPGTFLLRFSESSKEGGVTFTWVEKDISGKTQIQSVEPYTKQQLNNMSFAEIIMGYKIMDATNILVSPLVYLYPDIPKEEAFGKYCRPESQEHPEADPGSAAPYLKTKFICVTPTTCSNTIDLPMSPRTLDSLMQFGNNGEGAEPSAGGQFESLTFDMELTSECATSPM

`CC(C)C[C@H](NC(=O)/C=C/c1ccc(OP(=O)(O)O)cc1)C(=O)N1CCC[C@H]1C(=O)N[C@@H](CCC(N)=O)C(=O)NCc1ccccc1` gave a pIC50 of 6.87.
In turn, `CC(C)C[C@H](NC(=O)/C=C/c1ccc(OP(=O)(O)O)cc1)C(=O)N1CCC[C@H]1C(=O)N[C@H](C(=O)NCc1ccccc1)[C@@H](C)OC(N)=O` had a pIC50 of 6.07.
For `CC(C)C[C@H](NC(=O)/C=C/c1ccc(OP(=O)(O)O)cc1)C(=O)N1CCC[C@H]1C(=O)N[C@@H](COC(N)=O)C(=O)NCc1ccccc1`, the negative logarithm of the IC50 (pIC50) is 6.42.
